# Laboratory results from ChEMBL document CHEMBL3507680, “University of Dundee, Gates Library screen for HepG2 cell viability”.
# Experiment: Human HepG2 cell viability assay in 384 well format
# Type: toxicity, cell-based
# Design: dose 125 nL, time 70.5 hour; cytotoxicity at 70.5 h: concentration not given beside the values
# Details: HepG2 cells, read-out: Inhibition
row,SMILES,cytotoxicity at 70.5 h [%]
1,CCN(CCNC(=O)c1cccnc1OCCOC)C1CC1,0.553
2,CCC(C)N(C)CCNC(=O)c1ccccc1OCCOC (configuration not stated),-6.03
3,Cc1nc(C)n(CC2CCCN(CCc3ccccc3)C2)n1 (configuration not stated),4.16
4,Cc1nc(C)n(CC2CCCN(CCOc3ccccc3C#N)C2)n1 (configuration not stated),18.8
5,CC(=O)NCCNC(=O)CNC1CCCN(c2ccc(C)nn2)C1 (configuration not stated),17.7
6,Cc1nc(C)n(CC2CN(CCCOc3ccccc3)CCO2)n1 (configuration not stated),-2.14
7,Cc1nc(C)n(CC2CCCN(CCOc3ccc(F)cc3)C2)n1 (configuration not stated),-3.5
8,CCNC(c1cccnc1)c1ccc(F)c(C)c1 (configuration not stated),1.17
9,Cc1nc(C)n(CC2CCCN(CCOc3cccc(F)c3)C2)n1 (configuration not stated),0.903
10,Clc1cccc(OCCCN2CCOC(Cn3cncn3)C2)c1 (configuration not stated),1.4
11,Cc1nn(C)c(N(C)C)c1CNCc1cccnc1N(C)C,23.9
12,Cc1nn(C)c(N(C)C)c1CNCc1cccnc1OC(C)C,21.9
13,Cc1ccc(N2CCCC(NCc3ccccn3)C2)nn1 (configuration not stated),25.6
14,CCOc1ncccc1CNCc1c(C)nn(C)c1N(C)C,24.1
15,Cc1ccc(N2CCCC(NCc3ccc(C)s3)C2)nn1 (configuration not stated),3.59
16,Cc1nc2ccccc2nc1CN1CCOC(Cn2cccn2)C1 (configuration not stated),-9.86
17,CCc1nc(CN2CCCC(Cn3nc(C)nc3C)C2)no1 (configuration not stated),-9.12
18,O=C(NCc1ccccc1F)NCC(O)c1cccc(F)c1 (configuration not stated),-10.3
19,CC(C)C(=O)NC1CCCN(C(=O)c2ccccc2O)C1 (configuration not stated),-7.34
20,CC(C)C(=O)NC1CCCN(C(=O)c2cc(Cl)ccc2O)C1 (configuration not stated),15.5
21,COc1ccc(C(=O)N2CCCC(NC(=O)C(C)C)C2)c(O)c1 (configuration not stated),2.73
22,O=C(NCCc1ccccc1F)NCC(O)c1cccc(F)c1 (configuration not stated),-7.16
23,CCN(Cc1ccccc1Cl)Cn1nc(C)c2c(C)onc2c1=O,-6.62
24,CCN(Cc1cccc(C)c1)Cn1nc(C)c2c(C)onc2c1=O,-10.8
25,O=C(NCc1cccc(F)c1)NCC(O)c1cccc(F)c1 (configuration not stated),20.3
26,c1ccc(-c2nc(CN3CCOC(Cn4cccn4)C3)co2)cc1 (configuration not stated),4.42

row,SMILES,cytotoxicity at 70.5 h [%]
1,Cc1ccc(-c2nc(CN3CCOC(Cn4cccn4)C3)co2)cc1 (configuration not stated),-5.71
2,c1csc(-c2nc(CN3CCOC(Cn4cccn4)C3)cs2)c1 (configuration not stated),-8.48
3,Cc1cc(C)n(C2CCCN(C(=O)c3cn4cccnc4n3)C2)n1 (configuration not stated),-6.47
4,Cc1cccc(N(C)S(=O)(=O)c2cc(C(=O)O)cs2)c1,14.1
5,CN1CCCc2cc(CNC(=O)c3cccnc3O)ccc21,-1.9
6,CCOc1cccc2c1OCC(C(=O)NS(=O)(=O)c1ccc(Br)s1)=C2,14.6
7,O=C(c1cnc(-c2ccco2)s1)N1CCCCC1Cn1cccn1 (configuration not stated),-9.96
8,O=C(c1ccc(Cn2cccc2)cc1)N1CCN(CCO)CC1,-4.52
9,Cc1nc(C)c(CN2CCOC(CNc3cccnn3)C2)s1 (configuration not stated),-5.6
10,Cc1ccc(NC2CCN(C(=O)CCCn3ccnc3C)CC2)nn1,-7.72
11,CCC(O)CN1CCN(C(=O)c2ccc(Cn3cccc3)cc2)CC1 (configuration not stated),-11.6
12,CCc1cnc(CN(C)C2CCN(CCn3cc(C#N)cn3)C2)o1 (configuration not stated),16.4
13,COCc1nc(CN2CCOC(CNc3cccnn3)C2)cs1 (configuration not stated),-11.6
14,CCc1nc(CN(C)C2CCN(CCn3cccn3)C2)no1 (configuration not stated),-15.3
15,CCOc1ncccc1C(=O)N1CCCC1Cn1cc(C)cn1 (configuration not stated),-5.13
16,CN(C)Cc1cccc(C(=O)N2CCCC(n3cncn3)C2)c1 (configuration not stated),-12.1
17,CC(=O)N1CCCN(C(=O)c2cnn(-c3ccccc3Cl)c2)CC1,-17.1
18,Cc1cc(C)n(C2CCCN(C(=O)c3cccc4c3OCO4)C2)n1 (configuration not stated),-10.8
19,O=C(Cc1ccc2c(c1)CCO2)N1CCCC1c1noc(C2CC2)n1 (configuration not stated),9.85
20,CN(C)c1ccc(CNC(=O)NCCc2cn3ccccc3n2)cn1,-3.45
21,CCn1cnnc1CNC(=O)Cc1ccc2c(c1)OCCO2,-14.5
22,CN(C)C(=O)CN1CCN(C(=O)c2cnn(-c3ccccc3Cl)c2)CC1,-13.6
23,O=C(c1cnc(-c2cnccn2)s1)N1CCCC(n2cccn2)C1 (configuration not stated),-6.04
24,CN1CCN(C(=O)c2cnn(-c3ccccc3Cl)c2)CC1,-8.29
25,COC(=O)c1cccc(C(=O)N2CCCC(n3cncn3)C2)c1 (configuration not stated),-8.97
26,CCc1nc(CN2CCOC(CNc3cccnn3)C2)cs1 (configuration not stated),10.3

row,SMILES,cytotoxicity at 70.5 h [%]
1,Cc1nc(CCNC(=O)NCc2cccc(N(C)C)n2)cs1,-12.8
2,CCc1nccn1C1CCCN(C(=O)c2cncnc2C)C1 (configuration not stated),16
3,CCCn1nc2c(cc1=O)CN(CCN1CCCC1=O)CC2,-10.7
4,Cc1cc(C)n(CC2CCCN2CC(=O)N(C)CCC#N)n1 (configuration not stated),-8.11
5,Cc1cc(C)n(CC2CCCN2CC(=O)N(C)Cc2ccco2)n1 (configuration not stated),-8.36
6,FC(F)(F)c1cccc(CNc2nccc(C(F)(F)F)n2)c1,-3.61
7,O=C(NCCCn1nc2ccccn2c1=O)Nc1ccc(F)cc1F,-8.62
8,CC(=O)N(Cc1ncc(C)o1)C1CCN(CCCc2cnn(C)c2)C1 (configuration not stated),13.3
9,Cc1ccc(CN(C)CC(=O)NC2(C)CCS(=O)(=O)C2)cc1 (configuration not stated),-3.98
10,COc1ccc(CC(=O)NC2(C)CCS(=O)(=O)C2)cc1F (configuration not stated),0.396
11,CCn1ccnc1CNCC1CCCN1c1cc(NC)ncn1 (configuration not stated),-4.32
12,Cc1cc(C2CCCN(C(=O)c3c(C)nn4cccnc34)C2)n[nH]1 (configuration not stated),-3.82
13,Cc1ccoc1-c1nnc(CN2CCn3c(nnc3C3CC3)C2)o1,31.2
14,Cc1noc(C)c1CN(C)CCC(=O)N1CCc2sccc2C1,-4.03
15,Cc1occc1CNC(=O)N(CCCO)C1CCc2ccccc21 (configuration not stated),-1.74
16,CCc1ncc2c(n1)CN(CC(=O)Nc1ccc(Cl)cn1)CC2,32.4
17,COCCN1CCN(Cc2cccc(C(=O)N(C)C)c2)CC1C (configuration not stated),14.5
18,CCCNC(=O)NCc1cccnc1OC,-5.64
19,CN(Cc1ccc2c(c1)OCCO2)C(=O)Cn1cccnc1=O,3.46
20,CCN1CCN(c2ccc(CNC(=O)c3c(C)noc3C)cn2)CC1,21.7
21,CN(Cc1ccc2c(c1)OCCO2)C(=O)Cn1ccccc1=O,-5.02
22,CCNC(=O)c1ccc(CNCc2c(C)nn(C)c2N(C)C)cc1,24.8
23,CC(C)CN1CCN(C(=O)NCc2cccnc2-n2cccn2)CC1,3.85
24,CC(=O)NC1CCCN(C(=O)NCc2cccnc2-n2cccn2)C1 (configuration not stated),3.84
25,Cc1nn(C)c(Cl)c1CNCc1ccc(OCC(N)=O)cc1,1.75
26,O=C(NCCc1coc(-c2ccc(F)cc2)n1)NC1CCC(O)CC1 (configuration not stated),27.6

row,SMILES,cytotoxicity at 70.5 h [%]
1,CN(C(=O)Cc1c[nH]c2ccccc12)C1CCN(c2ccccn2)CC1,9.62
2,Cn1cc(C(=O)N2CCCC(n3cccn3)C2)c2ccccc21 (configuration not stated),0.858
3,Cc1nn(-c2ccccc2)cc1C(=O)N1CCCC(n2cccn2)C1 (configuration not stated),-1.21
4,Cc1nn(-c2ccccc2)cc1C(=O)N1CCCN2CCCC2C1 (configuration not stated),3.01
5,Cc1noc(C)c1CN1CCN(Cc2nccn2C)CC1,-4.67
6,Cc1ccc(-c2nc(CCNC(=O)NC3CCN(C)CC3)co2)cc1,-4.33
7,COc1ccccc1CCN(C)C(=O)NC(C)c1nncn1C (configuration not stated),-4.33
8,Cc1cc(C)n(CC2CCCCN2C(=O)c2cnn(C)c2)n1 (configuration not stated),8.99
9,Cc1cc(C)n(CC2CCCCN2C(=O)c2ccc3c(c2)OCO3)n1 (configuration not stated),-2.07
10,Cc1ccc2oc(C(=O)N3CCc4nnc(N(C)C)cc4C3)cc2n1,-3.29
11,Cc1cnc(CN2CCCC(c3cc(C(F)(F)F)[nH]n3)C2)cn1 (configuration not stated),-1.33
12,COCCN1CCN(Cc2cccc(OCC(N)=O)c2)CC1C (configuration not stated),10.7
13,Cc1cnn(CC2CN(CC(=O)NCCc3cccs3)CCO2)c1 (configuration not stated),-2.04
14,Cc1cccc(-c2noc(CN3CCCC3Cn3cccn3)n2)c1 (configuration not stated),8.86
15,Cc1cnn(CC2CN(CC(=O)N(C)c3nccs3)CCO2)c1 (configuration not stated),-2.03
16,Cc1cc(C)n(CCC(=O)N2CCCC(n3cncn3)C2)n1 (configuration not stated),25.8
17,OC(COCc1ccccc1F)CN1CCc2c(ncn2C2CC2)C1 (configuration not stated),-2.37
18,CCc1nc(CC(=O)N2CCCC2Cn2cccn2)cs1 (configuration not stated),2.11
19,Cc1nc(C)n(CC2CCCN2Cc2cn3c(C)cccc3n2)n1 (configuration not stated),-4.2
20,OC(CNCCn1cccn1)c1ccc(F)c(F)c1 (configuration not stated),0.389
21,CC(Cn1cccn1)NC(=O)N1CCN(Cc2cccs2)CC1 (configuration not stated),17
22,CC(Cn1cccn1)NC(=O)NCc1ccccn1 (configuration not stated),-3.27
23,Cc1cc(NC(=O)NCC2CCOC2)no1 (configuration not stated),-11.6
24,O=C(NCCCN1CCc2ccccc2C1)c1cccnc1O,-11.9
